# Literature values, collected in patent US20200046831A1, “NANOEMULSION COMPRISING IMIDAZOQUINOLINE-BASED MATERIAL AND USE THEREOF” (DANDI BIOSCIENCE INC., priority 2017, published 2020).
smiles,measurement,value
"CC(C)Cn1cnc2c(N)nc3ccccc3c21 [imiqimod (R837), imiquimod]",solubility in organic solvents,not dissolved in most organic solvents except for DMSO
